# Reference: ChEMBL document CHEMBL5154813 (Eur J Med Chem, 2022)
# Active and inactive are the calls of the source. The calls are words filed in the database; no cut-off is given here.
# Experiments:
# [1] = molecular target: T1, Peroxisome proliferator-activated receptor alpha (Homo sapiens) (UniProt Q07869); experiment: Agonist activity at yeast Gal4-fused human PPARalpha LBD transfected in human HepG2 cells assessed as transactivation by measuring beta-galactosidase activity incubated for 20 hrs by luminometry relative to control; format: cell-based
# T1 sequence (whole entry): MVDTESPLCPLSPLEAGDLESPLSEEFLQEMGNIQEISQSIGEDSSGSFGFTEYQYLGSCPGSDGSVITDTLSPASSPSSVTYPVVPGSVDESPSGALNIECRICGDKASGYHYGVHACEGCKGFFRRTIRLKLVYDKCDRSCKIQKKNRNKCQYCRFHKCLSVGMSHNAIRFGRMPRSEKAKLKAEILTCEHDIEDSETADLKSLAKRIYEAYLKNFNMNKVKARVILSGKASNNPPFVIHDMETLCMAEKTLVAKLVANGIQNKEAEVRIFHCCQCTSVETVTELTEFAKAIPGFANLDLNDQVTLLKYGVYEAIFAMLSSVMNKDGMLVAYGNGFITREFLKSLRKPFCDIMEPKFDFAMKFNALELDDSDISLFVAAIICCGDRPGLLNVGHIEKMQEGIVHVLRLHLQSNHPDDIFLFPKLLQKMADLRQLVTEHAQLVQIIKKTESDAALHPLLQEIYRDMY
# [2] = molecular target: T2, Peroxisome proliferator-activated receptor alpha (Homo sapiens, UniProt Q07869); experiment: Agonist activity at yeast Gal4-fused human PPARalpha LBD transfected in human HepG2 cells assessed as transactivation by measuring beta-galactosidase activity incubated for 20 hrs by luminometry; format: cell-based
# T2 sequence (Q07869 whole entry): T1 sequence (whole entry)
# [3] = molecular target: T3, Peroxisome proliferator-activated receptor delta (Homo sapiens, UniProt Q03181); experiment: Agonist activity at yeast Gal4-fused human PPARdelta transfected in human HepG2 cells assessed as transactivation by measuring beta-galactosidase activity incubated for 20 hrs by luminometry; format: cell-based
# T3 sequence (Q03181 whole entry): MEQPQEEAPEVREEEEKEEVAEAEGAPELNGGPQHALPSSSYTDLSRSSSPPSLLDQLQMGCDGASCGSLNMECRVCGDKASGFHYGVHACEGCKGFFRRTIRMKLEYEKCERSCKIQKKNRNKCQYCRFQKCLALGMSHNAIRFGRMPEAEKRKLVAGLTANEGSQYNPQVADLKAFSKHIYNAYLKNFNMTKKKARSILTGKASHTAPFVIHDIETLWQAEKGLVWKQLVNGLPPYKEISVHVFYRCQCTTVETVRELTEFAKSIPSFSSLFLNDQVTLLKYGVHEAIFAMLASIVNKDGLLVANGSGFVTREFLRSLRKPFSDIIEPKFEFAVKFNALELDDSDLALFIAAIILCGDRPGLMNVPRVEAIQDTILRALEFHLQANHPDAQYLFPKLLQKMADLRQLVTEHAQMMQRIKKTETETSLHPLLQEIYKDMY
# [4] = molecular target: T4, Peroxisome proliferator-activated receptor gamma (Homo sapiens, UniProt P37231); experiment: Agonist activity at yeast Gal4-fused human PPARgamma transfected in human HepG2 cells assessed as transactivation by measuring beta-galactosidase activity incubated for 20 hrs by luminometry; format: cell-based
# T4 sequence (P37231 whole entry): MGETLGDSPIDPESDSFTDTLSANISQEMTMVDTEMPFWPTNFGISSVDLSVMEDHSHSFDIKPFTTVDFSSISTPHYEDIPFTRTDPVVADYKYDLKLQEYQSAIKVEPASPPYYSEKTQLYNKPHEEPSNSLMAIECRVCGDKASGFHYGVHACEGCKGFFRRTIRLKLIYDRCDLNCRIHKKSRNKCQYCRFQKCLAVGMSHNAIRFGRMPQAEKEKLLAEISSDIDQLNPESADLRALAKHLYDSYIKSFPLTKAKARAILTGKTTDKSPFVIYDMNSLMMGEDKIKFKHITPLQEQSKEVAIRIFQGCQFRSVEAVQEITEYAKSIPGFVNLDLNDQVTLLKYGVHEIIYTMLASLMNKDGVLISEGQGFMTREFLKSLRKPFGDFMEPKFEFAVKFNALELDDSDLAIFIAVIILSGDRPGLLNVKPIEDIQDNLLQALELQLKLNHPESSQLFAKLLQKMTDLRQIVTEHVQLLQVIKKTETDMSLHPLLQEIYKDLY
# HepaRG [5] = experiment: Reduction of lipid accumulation in oleic acid-induced steatosis in human HepaRG cells at 10 uM treated for 2 weeks with media replenishment along with compound and inducer for every 2 days by spectrophotometry; format: functional, cell-based
# HepaRG [6] = experiment: Reduction of lipid accumulation in oleic acid-induced steatosis in human HepaRG cells at 10 uM treated for 2 weeks with media replenishment along with compound and inducer for every 2 days by Oil Red O staining based microscopy; format: functional, cell-based
# [7] = molecular target: T5, Peroxisome proliferator-activated receptor (Homo sapiens) (UniProt P37231+Q07869+Q03181); experiment: Agonist activity at PPAR in oleic acid-induced steatosis in human HepaRG cells assessed as increase in HMGCS2 mRNA levels at 100 uM treated for 2 weeks with media replenishment along with compound and inducer for every 2 days by RT-qPCR analysis; format: cell-based; details: filed as agonist
# C2C12 [8] = experiment: Induction of 2-NBD-glucose uptake in mouse C2C12 cells at 25 uM incubated in starvation medium with replacement of fresh medium for every 24 hrs for 96 hrs followed by 2-NBD-glucose treatment for 3 hrs by flow cytometric analysis; format: functional, cell-based; details: time 99.0 hrs
# [9] = molecular target: T5, Peroxisome proliferator-activated receptor (Homo sapiens); experiment: Agonist activity at PPAR in oleic acid-induced steatosis in human HepaRG cells assessed as increase in HMGCS2 mRNA levels at 100 uM treated for 24 hrs by RT-qPCR analysis; format: cell-based; details: filed as agonist
# HepaRG [10] = experiment: Reduction of lipid accumulation in oleic acid-induced steatosis in human HepaRG cells at 100 uM treated for 2 weeks with media replenishment along with compound and inducer for every 2 days by spectrophotometry; format: functional, cell-based
# HepaRG [11] = experiment: Reduction of lipid accumulation in oleic acid-induced steatosis in human HepaRG cells at 100 uM treated for 24 hrs by spectrophotometry; format: functional, cell-based
# [12] = molecular target: T5, Peroxisome proliferator-activated receptor (Homo sapiens); experiment: Agonist activity at PPAR in oleic acid-induced steatosis in human HepaRG cells assessed as increase in FGF21 mRNA levels at 100 uM treated for 2 weeks with media replenishment along with compound and inducer for every 2 days by RT-qPCR analysis; format: cell-based; details: filed as agonist
# HepaRG [13] = experiment: Reduction of lipid accumulation in oleic acid-induced steatosis in human HepaRG cells at 100 uM treated for 2 weeks with media replenishment along with compound and inducer for every 2 days by Oil Red O staining based microscopy; format: functional, cell-based
# C2C12 [14] = experiment: Induction of 2-NBD-glucose uptake in mouse C2C12 cells at 25 uM incubated in starvation medium with replacement of fresh medium for every 24 hrs for 96 hrs followed by insulin stimulation for 30 mins followed by 2-NBD-glucose treatment for 3 hrs by flow cytometric analysis; format: functional, cell-based; details: time 99.5 hrs
# [15] = molecular target: T5, Peroxisome proliferator-activated receptor (Homo sapiens); experiment: Agonist activity at PPAR in oleic acid-induced steatosis in human HepaRG cells assessed as increase in FABP1 mRNA levels at 100 uM treated for 2 weeks with media replenishment along with compound and inducer for every 2 days by RT-qPCR analysis; format: cell-based; details: filed as agonist
# HepaRG [16] = experiment: Reduction of lipid accumulation in oleic acid-induced steatosis in human HepaRG cells at 100 uM treated for 24 hrs by Oil Red O staining based microscopy; format: functional, cell-based
# [17] = molecular target: T5, Peroxisome proliferator-activated receptor (Homo sapiens); experiment: Agonist activity at PPAR in oleic acid-induced steatosis in human HepaRG cells assessed as increase in FGF21 mRNA levels at 100 uM treated for 24 hrs by RT-qPCR analysis; format: cell-based; details: filed as agonist
# [18] = molecular target: T5, Peroxisome proliferator-activated receptor (Homo sapiens); experiment: Agonist activity at PPAR in oleic acid-induced steatosis in human HepaRG cells assessed as increase in FABP1 mRNA levels at 100 uM treated for 24 hrs by RT-qPCR analysis; format: cell-based; details: filed as agonist
# [19] = molecular target: T5, Peroxisome proliferator-activated receptor (Homo sapiens); experiment: Agonist activity at PPAR in oleic acid-induced steatosis in human HepaRG cells assessed as increase in PDK4 mRNA levels at 100 uM treated for 24 hrs by RT-qPCR analysis; format: cell-based; details: filed as agonist
# [20] = Permeability of compound in human Caco-2 cells; format: ADME, cell-based
# [21] = molecular target: T5, Peroxisome proliferator-activated receptor (Homo sapiens); experiment: Agonist activity at PPAR in oleic acid-induced steatosis in human HepaRG cells assessed as increase in liver CPT1a mRNA levels at 100 uM treated for 2 weeks with media replenishment along with compound and inducer for every 2 days by RT-qPCR analysis; format: cell-based; details: filed as agonist
# HepaRG [22] = experiment: Reduction of lipid accumulation in oleic acid-induced steatosis in human HepaRG cells at 250 uM treated for 2 weeks with media replenishment along with compound and inducer for every 2 days by Oil Red O staining based microscopy; format: functional, cell-based
# HepaRG [23] = experiment: Reduction of lipid accumulation in oleic acid-induced steatosis in human HepaRG cells at 250 uM treated for 2 weeks with media replenishment along with compound and inducer for every 2 days by spectrophotometry; format: functional, cell-based
SMILES,Emax ([1]; filed as agonist) [%],EC50 [2] [µM],EC50 [4] [µM],also measured
CC(C)(C)OC(=O)NC(CSCc1ccc(C(=O)c2ccccc2)cc1)C(=O)O (stereo not given),83,1.6,10.3,EC50 [3]: 37.1 µM
CN(CCOc1ccc(CC2SC(=O)NC2=O)cc1)c1ccccn1 (stereo not given),,,,Activity (HepaRG [5]): Active; Activity (HepaRG [6]): Active
Cc1ccc(C(=O)c2ccc(CSCC(NC(=O)OC(C)(C)C)C(=O)O)cc2)cc1 (stereo not given),89,0.94,4.6,
CC(C)(C)OC(=O)NC(CSCc1ccc(Cc2ccccc2)cc1)C(=O)O (stereo not given),64,0.58,3.4,
CC(C)(C)OC(=O)N[C@@H](CSCc1ccc(C(=O)c2ccccc2)cc1)C(=O)O,108,1.6,8.4,Activity [7]: Active; Activity (C2C12 [8]): Active; Activity [9]: Active; Activity (HepaRG [10]): Active; Activity (HepaRG [11]): Active; Activity [12]: Active; Activity (HepaRG [13]): Active; Activity (C2C12 [14]): Active; Activity [15]: Active; EC50 [3]: 28 µM; Activity (HepaRG [16]): Active; Activity [17]: Active; Activity [18]: Active; Activity [19]: Active; permeability [20]: Permeable; Activity [21]: Active
CC(C)(C)OC(=O)NC(CSCc1ccc(C(=O)c2ccc(Cl)cc2)cc1)C(=O)O (stereo not given),95,0.37,3.2,
CC(C)(C)OC(=O)NC(CSCc1ccc(C(=O)c2ccc(C(F)(F)F)cc2)cc1)C(=O)O (stereo not given),77,0.25,2.2,
CC(C)(C)OC(=O)NC(COCc1ccc(Cc2ccccc2)cc1)C(=O)O (stereo not given),52,10,,
O=C(Cc1ccccc1)NC(CSCc1ccccc1)C(=O)O (stereo not given),148,2.55,10.9,
CC(C)(C)OC(=O)NC(CSCc1ccc(C(=O)c2ccc([N+](=O)[O-])cc2)cc1)C(=O)O (stereo not given),103,4.8,12.8,
COc1ccc(C(=O)c2ccc(CSCC(NC(=O)OC(C)(C)C)C(=O)O)cc2)cc1 (stereo not given),99,0.38,7.5,
CC(C)(C)OC(=O)NC(CSCc1ccc(-c2ccccc2)cc1)C(=O)O (stereo not given),108,0.71,3.9,
CC(C)(C)OC(=O)NC(CSCc1ccccc1)C(=O)O (stereo not given),118,1.45,25.7,
CC(C)(C)OC(=O)NC(COCc1ccc(C(=O)c2ccccc2)cc1)C(=O)O (stereo not given),49,12.1,20,
CC(SCc1ccccc1)C(NC(=O)c1ccccc1)C(=O)O (stereo not given),48,9.1,,
O=C(NC(CSCc1ccc(C(=O)c2ccccc2)cc1)C(=O)O)c1ccccc1 (stereo not given),,,,Emax [1]: 21%
O=C(NC(CSCc1ccc(Cc2ccc(Cl)cc2)cc1)C(=O)O)OCc1ccccc1 (stereo not given),165,0.016,,
O=C(NC(CSCc1ccc(-c2ccc(Cl)cc2)cc1)C(=O)O)OCc1ccccc1 (stereo not given),138,0.135,,
CC(C)OC(=O)C(C)(C)Oc1ccc(C(=O)c2ccc(Cl)cc2)cc1,,,,Activity (HepaRG [22]): Active; Activity (HepaRG [23]): Active
CC(C)(C)OC(=O)NC(CSCc1ccc(/C=C/C(=O)c2ccccc2)cc1)C(=O)O (stereo not given),94,0.8,10.2,
CC(C)(C)OC(=O)NC(COCc1ccc(-c2ccccc2)cc1)C(=O)O (stereo not given),100,7.2,13,
O=C(NC(CSCc1ccc(C(=O)c2ccccc2)cc1)C(=O)O)OCc1ccccc1 (stereo not given),90,1.9,7.9,
